In patent publication US12102675B2, “MRNA therapeutic compositions” (Nutcracker Therapeutics, Inc., priority 2022, dated 2024):
Entries after “also recorded” stand apart in the source; their conditions may differ.

Assays:
[1] = Rat toxicology study, control mRNA in DV-140-F2, intramuscular; type: in vivo, Sprague-Dawley rats; conditions: 4 doses in 2 weeks
Method: Briefly, Sprague-Dawley rats (n=8) were treated with a control mRNA formulated in DV-140-F2 at 0.03 or 0.3 mg/kg or PBS vehicle. Injections were done 4 times over the course of 13 days and were administered intramuscularly into the hind limb. Whole blood was taken for hematology, and serum taken for clinical chemistry and cytokine analysis at 6 hours post the first dose and final dose, and 2 weeks post the final dose. Additionally, 2 of the animals were sacrificed at 6 hours post the final dose and 2 weeks post final dose and a gross necropsy was performed. Tissue samples were retained and histopathology run on select organs.

[2] = tested on: recurrent or metastatic cervical cancer, tumors express PD-L1 (CPS≥1); conditions: single agent, disease progression on or after chemotherapy; cited from earlier work
[3] = tested on: persistent, recurrent, or metastatic cervical cancer, tumors express PD-L1 (CPS≥1); conditions: in combination with chemotherapy, with or without bevacizumab; cited from earlier work
[4] = tested on: CD3+ T cells; experiment: T cell proliferation in co-culture with HEK cells transfected with LIGHT variants; type: cell-based, human; conditions: vs soluble (Wt) LIGHT, FIGS. 9A, 9B
Method: LIGHT variants were formulated in MessengerMax mRNA Transfection Reagent. Human embryonic kidney (HEK) cells were transfected with the LIGHT variant constructs for cell surface expression of LIGHT. CellTrace Violet (Thermo Fischer Scientific) was used to label CD3+ T cells from the resulting peripheral blood mononuclear cells (PBMC). 100 ng/mL of soluble CD3 Antibody was added to the resulting labeled CD3+ T cells. The T cell proliferation and interferon-gamma (IFN-7) secretion was evaluated about 5 days of co-culture.

[5] = tested on: primary human T cell; experiment: Human T cell proliferation in response to ENG or WT hLIGHT mRNA with hIL-12 mRNA; type: cell-based; conditions: HEK293 transfected with hIL-12 mRNA plus LIGHT mRNA, 1:5 with T cells, anti-CD3 30 or 100 ng/mL, 4 days; relative to IL-12 and WT hLIGHT
Method: This study was designed to compare the ability of ENG and WT hLIGHT mRNAs in combination with hIL-12 mRNA to stimulate primary human T cell proliferation. Human T cells were isolated from PBMCs from 1 healthy donor and stained with CellTrace Violet. HEK293 cells were transfected with hIL-12 mRNA (RNA-683) and WT hLIGHT (RNA-786) or ENG hLIGHT (RNA-1359) mRNA formulated in Lipofectamine MessengerMAX (0.5 ng each mRNA per 1000 cells). Control cells were transfected with noncoding mRNA control in the same way. Transfected HEK293 cells were cocultured with the T cells in a 1:5 ratio in the presence of 30 ng/mL or 100 ng/mL anti-CD3 antibody to mimic antigen specific TCR engagement for 4 days at 37° C., 5% CO2. CD8+ T cell proliferation was assessed by flow cytometry and the proliferation index was calculated. […] The results are shown in FIG. 10A, where ENG=engineered; HEK=human embryonic kidney; IL-12=interleukin-12; PBMC=peripheral blood mononuclear cell; WT=wildtype. The data in FIG. 10A represent mean±standard deviation (n=4). Statistical analysis was performed by unpaired student's t-test (P<0.05).

[6] = tested on: transfected cells; experiment: Surface expression of soluble or membrane-stabilized LIGHT by flow cytometry using HVEM binding; type: cell-based; conditions: compared to WT LIGHT mRNA
Description: FIGS. 14A and 14B depict the assessment of surface expression of soluble LIGHT or membrane-stabilized LIGHT by flow cytometry using HVEM binding.

[7] = target: T1, HVEM (Homo sapiens, UniProt Q92956); experiment: HVEM activation by LIGHT, HVEM reporter cell line; type: cell-based; conditions: FIGS. 1A, 1B, 12
T1 construct: host or cells: HVEM reporter cell line (not further described)
T1 sequence (Q92956 39-283): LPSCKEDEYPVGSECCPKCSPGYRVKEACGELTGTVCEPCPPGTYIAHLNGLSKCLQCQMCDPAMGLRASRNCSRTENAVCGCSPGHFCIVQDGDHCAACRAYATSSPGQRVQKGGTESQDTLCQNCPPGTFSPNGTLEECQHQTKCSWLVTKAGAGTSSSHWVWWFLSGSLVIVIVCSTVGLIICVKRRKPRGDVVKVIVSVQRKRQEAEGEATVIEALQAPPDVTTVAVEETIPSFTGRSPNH
Description: FIG. 12 illustrates pre-blocking of soluble LIGHT in HVEM co-HEK transfected cells.
FIGS. 13A-13C are a comparison of HVEM activation with supernatant (blue) or cells (orange) for soluble LIGHT or membrane-stabilized LIGHT.

[8] = High dose in rat, 100 μg RNA IM
[9] = Therapeutic dose scaled for rat, 30 μg RNA IM

CCCCCCCCCCN(CC(N)=O)C(=O)CN(CCCCCCCCCC)C(=O)CN(CCCCCCCCCC)C(=O)CN(CCCCCCCCCC)C(=O)CNCCO [Compound 140, N-(2-amino-2-oxoethyl)-N-decyl-2-(N-decyl-2-(N-decyl-2-(N-decyl-2-((2-hydroxyethyl)amino)acetamido)acetamido)acetamido)acetamide]
Gross organ pathology [1, 8]: None observed
Injection site reactions or other clinical observations [1, 8]: None observed
Gross organ pathology [1, 9]: None observed
Injection site reactions or other clinical observations [1, 9]: None observed

pembrolizumab [KEYTRUDA]
objective response [2]: around 14%
overall survival [3]: improvements in overall survival

B1: ENG hLIGHT: mRNA SEQ ID NO: 18 encoding human LIGHT with amino acids #66-92 replaced by 10 amino acid linker (SEQ ID NO: 17) (nucleic acid)
chain: AGGCAUAGAAGUCGAGACACAGCCACUAAGUAAGCCACCAUGGAGGAGAGCGUGGUGCGGCCUAGCGUGUUCGUGGUCGACGGCCAGACCGACAUCCCCUUCACCAGACUGGGAAGAAGCCACAGAAGGCAGUCUUGCUCCGUGGCCAGAGUGGGCCUGGGCCUGCUCCUGCUGCUGAUGGGCGCUGGCCUGGCCGUGCAAGGCUGGUUCCUGCUGCAGCUGCACUGGCGGCUGGGCAGCAGCGCCUCUACCGAUAAGACCCACACCGUGAACCCUGCCGCCCACCUGACCGGCGCCAACAGCUCUCUGACCGGAUCUGGCGGACCUCUGCUGUGGGAGACACAGCUGGGCCUUGCUUUUCUGCGGGGCCUGAGCUACCACGACGGCGCUCUGGUGGUUACAAAGGCCGGCUACUACUACAUCUACAGCAAGGUGCAGCUGGGAGGCGUGGGUUGUCCACUGGGACUGGCCAGCACAAUCACACACGGCCUUUAUAAGCGGACCCCUAGAUACCCCGAGGAACUGGAACUGCUGGUCUCCCAGCAGAGCCCUUGCGGCAGAGCCACAAGCAGCAGCAGAGUGUGGUGGGACAGCUCAUUCCUGGGCGGCGUGGUGCAUCUGGAAGCCGGCGAGAAAGUGGUGGUCAGAGUGCUGGACGAGAGACUGGUGCGGCUGAGAGAUGGGACCCGCUCCUACUUCGGCGCCUUUAUGGUGUGAUAAGCGCCGCCUCCGGGACAGUGCACCCAGGCUGCGGCCCCUCCCCCGUCCUGGAGGUUCCCCAGCCCCACUUACCGCUUAAUGCGCCAAUAAACCAAUGAACGAAGCAAAAAAAAAAAAAAAAAAAAAAAAAAAAAAAAAAAAAAAAAAAAAAAAAAAAAAAAAAAAAAAAAAAAAAAAAAAAAAAAAAAAAAAAAAAAAAAAAAAAAAAAAAAAAAAAAAAAAAAAAAAAAAAAAAAAAAAAAAAAAAAAAAAAAAAAAAAAAAAAAAAAAAAAA
modifications: LIGHT ICD TM 1-66 RLG … LIGHT 92-240 1359, aka 1495 nt
T-cell proliferation ([4]; listed as 1359): increase of T-cell proliferation
T-cell proliferation ([4]; listed as ENG LIGHT mRNA): increased T cell proliferation
CD8+ T cell proliferation and survival [5]: increased CD8+ T cell proliferation and survival
surface expression and bioactivity on transfected cells [6]: higher surface expression and bioactivity

B2: soluble LIGHT: Wild-type soluble human LIGHT (SEQ ID NO: 1) (protein)
chain: MEESVVRPSVFVVDGQTDIPFTRLGRSHRRQSCSVARVGLGLLLLLMGAGLAVQGWFLLQLHWRLGEMVTRLPDGPAGSWEQLIQERRSHEVNPAAHLTGANSSLTGSGGPLLWETQLGLAFLRGLSYHDGALVVTKAGYYYIYSKVQLGGVGCPLGLASTITHGLYKRTPRYPEELELLVSQQSPCGRATSSSRVWWDSSFLGGVVHLEAGEEVVVRVLDERLVRLRDGTRSYFGAFMV
modifications: Human Wild Type LIGHT (786) aa
effect of soluble LIGHT on HVEM binding and signaling by membrane-stabilized LIGHT [7]: decreases the ability of membrane-stabilized LIGHT to activate HVEM; also recorded: competes for HVEM binding and reduces signaling by membrane-stabilized LIGHT
